Source: ChEMBL document CHEMBL4699608, “Aliphatic amines are viable pro-drug moieties in phosphonoamidate drugs” (Bioorg Med Chem Lett, 2020)
Activity calls are given as the source filed them. No cut-off for these calls is given here.

Test system: D-423MG
Assay: Cytotoxicity against human D423 cells with HINT1 deficient
Format: functional, cell-based
Settings: not given

| SMILES | Activity |
| --- | --- |
| CC(C)(C)C(=O)OCOP(=O)(NCC1CC1)C1CCCN(O)C1=O (configuration not stated) | Active |

Test system: D-423MG
Assay: Cytotoxicity against human D423 cells with ENO1 deficient assessed as reduction in cell viability incubated for 5 days by crystal violet staining based spectrophotometry
Format: functional
Settings: 120 h

| SMILES | IC50 |
| --- | --- |
| CC(C)(C)C(=O)OCOP(=O)(NCc1ccc(F)c(F)c1)C1CCCN(O)C1=O (configuration not stated) | 84.6 nM |
| CC(C)(C)C(=O)OCOP(=O)(NCc1cccc(F)c1)C1CCCN(O)C1=O (configuration not stated) | 103 nM |
| CNP(=O)(OCOC(=O)C(C)(C)C)C1CCCN(O)C1=O (configuration not stated) | 115 nM |
| CCCCCCCCCCCCNP(=O)(O)C1CCCN(O)C1=O (configuration not stated) | 24 nM |
| CC(C)(C)C(=O)OCOP(=O)(NCc1ccc(F)cc1)C1CCCN(O)C1=O (configuration not stated) | 129 nM |
| CC(C)(C)C(=O)OCOP(=O)(NCC1CCCCC1)C1CCCN(O)C1=O (configuration not stated) | 81.1 nM |
| CC(C)(C)C(=O)OCOP(=O)(NC1CCC1)C1CCCN(O)C1=O (configuration not stated) | 121 nM |
| CC(C)(C)C(=O)OCOP(=O)(OCOC(=O)C(C)(C)C)C1CCCN(O)C1=O (configuration not stated) | 17.3 nM |
| O=C1C(P(=O)(O)NCC2CC2)CCCN1O (configuration not stated) | 8830 nM |
| CC(C)(C)C(=O)OCOP(=O)(NCc1ccc(F)cc1F)C1CCCN(O)C1=O (configuration not stated) | 80.3 nM |
| CC(C)OC(=O)C(C)NP(=O)(OCOC(=O)C(C)(C)C)C1CCCN(O)C1=O (configuration not stated) | 258 nM |
| CC(C)(C)C(=O)OCOP(N)(=O)C1CCCN(O)C1=O (configuration not stated) | 62.6 nM |
| CC(C)(C)C(=O)OCOP(=O)(NCc1ccccc1)C1CCCN(O)C1=O (configuration not stated) | 244 nM |
| CC(C)(C)C(=O)OCOP(=O)(NCc1ccccc1F)C1CCCN(O)C1=O (configuration not stated) | 196 nM |

Test system: D-423MG
Assay: Cytotoxicity against human D423 cells with PAPSS1 deficient
Format: functional, cell-based
Settings: not given

| SMILES | Activity |
| --- | --- |
| CC(C)(C)C(=O)OCOP(=O)(NCC1CC1)C1CCCN(O)C1=O (configuration not stated) | Active |

Test system: D-423MG
Assay: Cytotoxicity against human D423 cells with CES2 deficient
Format: functional, cell-based
Settings: not given

| SMILES | Activity |
| --- | --- |
| CC(C)(C)C(=O)OCOP(=O)(NCC1CC1)C1CCCN(O)C1=O (configuration not stated) | Active |
